# Reference: US5300527A, “Alkylamino-and alkylamino alkyl diarylketones” (Hoechst-Roussel Pharmaceuticals Incorporated, priority 1992, dated 1994)
# Structures can show the parent of a compound that is named as a salt. Where two headings read alike, the source gives them in different places.
# Experiments:
# [1] = system: scopolamine induced memory deficit; assay: Dark Avoidance Assay (reversal of scopolamine induced memory deficit); type: in vivo; settings: mice
# Procedure: This utility can also be ascertained by determining the ability of these compounds to restore cholinergically deficient memory in the Dark Avoidance Assay. In this assay mice are tested for their ability to remember an unpleasant stimulus for a period of 24 hours. A mouse is placed in a chamber that contains a dark compartment; a strong incandescent light drives it to the dark compartment, where an electric shock is administered through metal plates on the floor. The animal is removed from the testing apparatus and tested again, 24 hours later, for the ability to remember the electric shock.
# If scopolamine, an anticholinergic that is known to cause memory impairment, is administered before an animal's initial exposure to the test chamber, the animal re-enters the dark compartment shortly after being placed in the test chamber 24 hours later. This effect of scopolamine is blocked by an active test compound, resulting in a greater interval before re-entry into the dark compartment.
# The results for an active compound are expressed as the percent of a group of animals in which the effect of scopolamine is blocked, as manifested by an increased interval between being placed in the test chamber and re-entering the dark compartment.
# [2] = system: 2-phenyl-1,4-benzoquinone-induced writhing; assay: 2-phenyl-1,4-benzoquinone-induced writhing test in mice (analgesic activity); type: in vivo; settings: Mus musculus, sc, read-out: Inhibition in Writhing (%)
# From the text: Compounds of the present invention are useful as analgesic agents due to their ability to alleviate pain in mammals. […] Exptl. Biol. Med. 95, 729 (1957)].
# [3] = mice, dose 20 mg/kg of body wt., subcutaneous
SMILES,"inhibition in vivo at 20 mg/kg [2, 3] [%]",further results
CN(C)c1cccc(C(=O)Cc2cccc(Cl)c2)c1.Cl [2-(3-Chlorophenyl)-1-[3-(dimethylamino)phenyl]ethanone hydrochloride],–,"% of animals with scopolamine induced memory deficit reversal ([1]; dose 0.16 mg/kg, s.c.): 40%"
"CN(C)c1cccc(CC(=O)C(F)(F)c2ccccc2)c1 [1,1-Difluoro-3-[3-(dimethylamino)phenyl-1-phenyl-2-propanone]",58,–
CN(C)c1ccc(C(=O)C(F)c2cccc(Cl)c2)cc1 (centres unmarked) [2-(3-Chlorophenyl)-2-fluoro-1-[4-(dimethylamino)phenyl]ethanone],44,–
"CN(C)c1cccc(C(=O)C(F)(F)C(O)c2cccc(Cl)c2)c1 (centres unmarked) [3-(3-Chlorophenyl)-2,2-difluoro-3-hydroxy-1-[3-(dimethylamino)phenyl]propanone hydrochloride]",63,–
"CNC(=O)Oc1ccc2c(c1)[C@]1(C)CCN(C)[C@@H]1N2C [physostigmine, reference compound]",–,"% of animals with scopolamine induced memory deficit reversal ([1]; dose 0.31 mg/kg, s.c. (reference)): 20%"
"CCC(=O)O[C@](Cc1ccccc1)(c1ccccc1)[C@H](C)CN(C)C [propoxyphene, reference compound]",–,inhibition in vivo at 3.9 mg/kg [2]: 50%
CN(C)c1cccc(OCC(=O)Cc2cccc(Cl)c2)c1 [1-(3-Chlorophenyl)-3-[3-(dimethylamino)phenoxy]-2-propanone],41,–
"CN(C)c1ccc(C(=O)C(F)(F)c2ccccc2)cc1 [2,2-Difluoro-1-[4-(dimethylamino)phenyl]-2-phenylethanone]",67,–
CN(C)c1cccc(CC(=O)Cc2cccc(Cl)c2)c1 [1-(3-Chlorophenyl)-3-[3-(dimethylamino)phenyl]-2-propanone],51,–
"CN(C)c1cccc(C(=O)C(F)(F)c2cccc(Cl)c2)c1 [2-(3-Chlorophenyl)-2,2-difluoro-1-[3-(dimethylamino)phenyl]ethanone hydrochloride]",–,inhibition in vivo at 20 mg/kg [2]: 50%
CN(C)c1cccc(C(=O)COc2cccc(Cl)c2)c1 [2-(3-Chlorophenoxy)-1-[3-(dimethylamino)phenyl]ethanone],69,–
